Test results published in paper PMC12051620, “Molecular basis underlying the specificity of an antagonist AA92593 for mammalian melanopsins” (The Journal of Biological Chemistry, 2025).

Columns and labels:
[1] = target: T1, human melanopsin F94^2.61C/S188^ECL2T/W189^ECL2F/S269^6.52A mutant (Homo sapiens, UniProt Q9UHM6, F127C/S222T/S313A/W223F); assay: GsX GloSensor assay with Gsα/q11; format: cell-based; settings: up to 16.7 μM AA92593, COS-1 cells
T1 construct: expressed in transfected cells; host or cells: COS-1
T1 sequence (Q9UHM6 1-384 F127C/S222T/W223F/S313A): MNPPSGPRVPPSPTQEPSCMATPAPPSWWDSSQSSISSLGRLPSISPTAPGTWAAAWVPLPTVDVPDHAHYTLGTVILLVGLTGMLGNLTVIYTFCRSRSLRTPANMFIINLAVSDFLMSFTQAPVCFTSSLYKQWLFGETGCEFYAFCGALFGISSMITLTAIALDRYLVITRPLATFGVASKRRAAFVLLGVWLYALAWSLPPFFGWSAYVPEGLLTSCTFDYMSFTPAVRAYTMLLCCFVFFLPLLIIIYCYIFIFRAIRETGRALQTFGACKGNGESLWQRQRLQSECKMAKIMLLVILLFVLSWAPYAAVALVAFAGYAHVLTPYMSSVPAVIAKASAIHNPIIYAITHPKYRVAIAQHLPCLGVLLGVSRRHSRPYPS
Text: (§1) Next, we attempted to render human melanopsin more ineffective to AA92593 by combining W189^ECL2F with F94^2.61C/S188^ECL2T/S269^6.52A. […] We note that the loss of sensitivity for AA92593 by the quadruple substitutions was not due to the substitutions-induced changes in absorption spectrum or localization in COS-1 cells. […] In the GloSensor assay, a small difference in G protein activation between the triple and quadruple mutants in the presence of AA92593 would be amplified through the second messenger signaling cascade.
(§2) For GloSensor assay, opsins, GloSensor assay sensor (coded by pGlo-22F), and NanoBiT-tagged G proteins were transiently expressed in COS-1 cells (kindly provided from Dr David Farrens, Oregon Health and Science University) using PEI as described previously ([24], [52]). For the GsX GloSensor assay ([12], [13]), each well of a 96-well assay plate (Corning) was transfected with 50 ng opsin plasmid, 16.7 ng G protein plasmid, 50 ng pGlo-22F plasmid (Promega), and 500 ng PEI in 25 μl Opti-mem and 75 μl Dulbecco's modified Eagle's medium (D-MEM). […] For GFP-fluorescence microscopy, a 35-mm cell culture dish (IWAKI) was transfected with 2 μg melanopsin-GFP plasmid and 8 μg PEI in 400 μl Opti-mem and 1.2 ml D-MEM. […]

[2] = test system: mouse melanopsin L207^5.42F mutant; assay: GsX GloSensor assay with Gsα/q11; format: cell-based; settings: 16.7 μM AA92593, COS-1 cells
Text: as §1, §2

Compound: COc1ccc(S(=O)(=O)N2CCCCC2)cc1C [AA92593]
- sensitivity to AA92593 [1]: almost completely lost sensitivity
- increased susceptibility to the antagonist vs WT [2]: ~26%
